Patent US9675697B2 (THE REGENTS OF THE UNIVERSITY OF MICHIGAN, priority 2013, dated 2017)
Read-outs that look alike come from different tables or passages of the source.

Legend:
[1] = target: T1, BRD2 BD2 (Homo sapiens (Human), UniProt P25440); experiment: FP competitive binding assay (BRD-1F probe); conditions: for IC50: BRD-1F probe 5 nM, protein 200 nM; for Ki: BRD-1F probe, calculated from IC50
Description: (§1) The FAM labeled fluorescent probe (BRD-1F) was synthesized based on a known small-molecule BET bromodomain inhibitor. […] Final BRD-1F concentration was 5 nM. Plates were incubated at room temperature for 1-2 hours with gentle shaking to assure equilibrium.
(§2) Final probe concentration is 5 nM in all assays. […] FP values were measured as described above.

[2] = target: T2, BRD4 BD2 (Homo sapiens (Human), UniProt O60885); experiment: FP competitive binding assay (BRD-1F probe); conditions: for IC50: BRD-1F probe 5 nM, protein 200 nM; for Ki: BRD-1F probe, calculated from IC50
Description: as §1, §2

[3] = system: prostate VCaP cell line; experiment: Cell growth inhibition, Cell TiterGLO, 4 days; type: cell-based; conditions: treated 4 days, read-out: VCaP cells (IC50 (nM))
[4] = system: leukemia MOLM-13 cell line; experiment: 4-day cell viability assay, CellTiter-Glo; type: cell-based; conditions: Homo sapiens, MOLM-13, 96 h; 4 days; read-out: Cell Growth Inhibition (IC50 (nM)) MOLM-13 Cell Line (CellTiter-Glo assay)
Description: (§3) The effect of representative BET bromodomain inhibitors on cell viability was determined in a 4-day proliferation assay. Cells were maintained in the appropriate culture medium with 10% FBS at 37° C. and an atmosphere of 5% CO2. All the cell lines were used within three months of thawing fresh vials.
(§4) Cells were seeded in 96-well flat bottom (Corning COSTAR, Corning, N.Y., cat#3595) or white opaque cell culture plates (BD Falcon, cat#353296) at a density of 3,000-10,000 cells/well in 75 μl of culture medium. Compounds were serially diluted in the appropriate medium, and 75 μl of the diluted compounds were added to the appropriate wells of the cell plate. After the addition of compounds, the cells were incubated at 37° C. in an atmosphere of 5% CO2 for 4 days. Cell viability was determined using the CellTiter-Glo® Luminescent Cell Viability Assay Kit (Promega, Madison, Wis.) for MOLM-13 cells and WST (2-(2-methoxy-4-nitrophenyl)-3-(4-nitrophenyl)-5-(2,4-disulfophenyl)-2H-tetrazolium, monosodium salt) Cell Counting-8 Kit (Dojindo Molecular Technologies, Inc., Rockville, Md.) for MDA-MB-436 cells according to the manufacturers' instructions.
For the CellTiter-Glo assay, 100 μl of CellTiter-Glo® Reagent was added to each well, and then the plates were incubated at room temperature for 10-20 minutes. The luminescent signal was measured using a Tecan Infinite M1000 multimode microplate reader (Tecan, Morrisville, N.C.). The readings were normalized to the DMSO-treated cells and the IC50 was calculated by nonlinear regression (four parameters sigmoid fitted with variable slope, least squares fit, and no constraint) analysis using the GraphPad Prism 5 software.

[5] = target: T1, BRD2 BD2; experiment: FP competitive binding assay using Cpd. No. 350 as the probe
Description: (§6) Fluorescence Polarization (FP) competitive binding studies (see above) were carried out using the FAM labeled fluorescent probe Cpd. No. 350 to determine binding affinities of representative compounds to both BD1 and BD2 of BRD2, BRD3, and BRD4 proteins. Equilibrium dissociation constants (Id) values of Cpd. No. 350 to these six proteins were determined from protein saturation experiments by monitoring the total fluorescence polarization of mixtures composed with the fluorescent probe at a fixed concentration and proteins with increasing concentrations up to full saturation. Serial dilutions of testing protein were mixed with Cpd. No. 350 to a final volume of 200 μl in the assay buffer. […] Plates were incubated at room temperature for 30 minutes with gentle shaking to assure equilibrium. […] Kd values of Cpd.
(§7) The IC50 and Ki values of compounds were determined in a competitive binding experiment as described above. […] FP values were measured as described above. IC50 values were determined by nonlinear regression fitting of the competition curves.

[6] = target: BRD2 BD1 (Homo sapiens (Human), UniProt P25440); experiment: as above
Sequence of BRD2 BD1 (P25440 74-180): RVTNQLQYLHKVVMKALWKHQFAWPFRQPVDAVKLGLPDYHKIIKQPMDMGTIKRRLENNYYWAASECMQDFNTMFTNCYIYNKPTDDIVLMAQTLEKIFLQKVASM
Description: as §6, §7

[7] = system: MV-4-11; experiment: Cell growth inhibition, CellTiter-Glo, acute leukemia cell line; type: cell-based; conditions: Homo sapiens, MV4-11, 96 h, 4 days
Description: (§5) Cell growth inhibitory activity of representative BET bromodomain inhibitors was determined using CellTiter-Glo® Luminescent Cell Viability Assay. For leukemia cell lines MV-4-11 (ATCC, Manassas, Va.) and MOLM-13 (DSMZ, Germany), cells were seeded in 96-well white opaque cell culture plates at a density of 10,000 cells/well with serially diluted compounds and incubated at 37° C. in an atmosphere of 95% air and 5% CO2 for 4 days. Cell viability was determined using the CellTiter-Glo® Luminescent Cell Viability Assay Kit (Promega, Madison, Wis.) according to the manufacture's instruction. Briefly, a volume of CellTiter-Glo® Reagent equal to the volume of cell culture medium was added to each well, and then the plates were incubated at room temperature for 10-20 minutes. The luminescent signal was measured using a Tecan Infinite M1000 multimode microplate reader (Tecan, Morrisville, N.C.). The half maximal inhibitory concentration (IC50) was calculated using the GraphPad Prism 5 software (GraphPad Software, La Jolla, Calif.).

[8] = system: MOLM-13; experiment: as above; type: cell-based; conditions: Homo sapiens, MOLM-13, 96 h, 4 days
Description: as §5

[9] = system: MV4;11; experiment: Cell growth inhibition in leukemia cell line; type: cell-based; conditions: Homo sapiens, MV4-11, cell growth inhibition
[10] = target: BRD3 BD2 (Homo sapiens (Human), UniProt Q15059); experiment: FP competitive binding assay using Cpd. No. 350 as the probe
Sequence of BRD3 BD2 (Q15059 306-415): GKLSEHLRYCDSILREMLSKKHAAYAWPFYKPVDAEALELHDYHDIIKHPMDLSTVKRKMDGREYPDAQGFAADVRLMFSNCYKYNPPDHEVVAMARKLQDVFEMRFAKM
Description: as §6, §7

[11] = target: T2, BRD4 BD2; experiment: as above
[12] = system: K562; experiment: Cell growth inhibition in leukemia cell line; type: cell-based; conditions: Homo sapiens
[13] = target: BRD3 BD1 (Homo sapiens (Human), UniProt Q15059); experiment: FP competitive binding assay using Cpd. No. 350 as the probe
Sequence of BRD3 BD1 (Q15059 34-140): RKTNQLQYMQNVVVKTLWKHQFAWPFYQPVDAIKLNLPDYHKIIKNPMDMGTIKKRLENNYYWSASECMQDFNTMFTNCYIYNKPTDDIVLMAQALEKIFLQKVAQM
Description: as §6, §7

[14] = target: BRD4 BD1 (Homo sapiens (Human), UniProt O60885); experiment: as above
Description: as §6, §7

[15] = system: AML-2; experiment: Cell growth inhibition in leukemia cell line; type: cell-based
Description: as §3, §4

[16] = read-out: BRD2 BD2 Ki, FP, Cpd. No. 350 probe […]
[17] = read-out: BRD2 BD1 Ki, FP, Cpd. No. 350 probe […]
[18] = read-out: BRD3 BD2 Ki, FP, Cpd. No. 350 probe […]
[19] = read-out: BRD4 BD2 Ki, FP, Cpd. No. 350 probe […]
[20] = read-out: BRD3 BD1 Ki, FP, Cpd. No. 350 probe […]
[21] = read-out: BRD4 BD1 Ki, FP, Cpd. No. 350 probe […]

T1 sequence (P25440 344-453): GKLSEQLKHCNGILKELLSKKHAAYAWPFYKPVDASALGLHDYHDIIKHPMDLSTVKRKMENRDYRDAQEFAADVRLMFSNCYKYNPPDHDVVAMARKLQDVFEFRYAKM

COc1cc2c(cc1-c1c(C)noc1C)[nH]c1ccnc(-c3ccccc3)c12
IC50 [1]: 255 ± 114 nM | Ki [1]: 34.9 ± 21.2 nM | IC50 [2]: 514 nM | Ki [2]: 83.4 nM

CCNC(=O)C[C@@H]1N=C(c2ccc(Cl)cc2)c2cc(OC)ccc2-n2c(C)nnc21 [I-BET762, reference compound]
IC50 ([3]; Homo sapiens, VCaP, 96 h): 500 nM

COc1cc2c(cc1-c1c(C)noc1C)[nH]c1ccnc(-c3c(C)n[nH]c3C)c12
IC50 [4]: 311 ± 12 nM | IC50 [1]: 92.8 ± 30.8 nM | Ki [1]: < 10 nM | Ki [5, 16]: 57.7 ± 8.1 nM | Ki [6, 17]: 48.3 ± 1.3 nM | IC50 [7]: < 100 nM | IC50 [8]: < 500 nM

COc1cc2c(cc1-c1c(C)noc1C)[nH]c1ncnc(-c3c(C)n[nH]c3C)c12 [Cpd. No. 38]
IC50 [7]: < 100 nM | IC50 [8]: < 500 nM

COc1cc2c(cc1-c1c(C)noc1C)[nH]c1ccncc12 [Cpd. No. 1, 4-(8-methoxy-5H-pyrido[4,3-b]indol-7-yl)-3,5-dimethylisoxazole]
IC50 [9]: 178 ± 114 nM | Ki [10]: 14.3 ± 0.5 nM | IC50 [4]: 550 ± 303 nM | Ki [5]: 34.5 ± 2.1 nM | Ki [11]: 70.1 ± 2 nM | IC50 [12]: > 2000 nM | Ki [6]: 31.6 ± 8.2 nM | Ki [13]: 14.7 ± 1 nM | Ki [14]: 47.8 ± 1 nM | IC50 [15]: 148 ± 64 nM

COc1cc2c(cc1-c1c(C)noc1C)ncc1[nH]c(=O)n([C@H](C)c3ccccn3)c12 [I-BET151, reference compound]
IC50 ([3]; Homo sapiens, VCaP, 96 h): 862 nM

COc1cc2c(cc1-c1c(C)noc1C)[nH]c1nc(C)nc(-c3ccnc4ccccc34)c12 [Cpd. No. 73]
Ki [10, 18]: 2.6 nM | IC50 ([3]; Homo sapiens, VCaP, 96 h): 156 nM | Ki [5, 16]: 8.7 nM | Ki [11, 19]: 7.8 nM | Ki [6, 17]: 15.5 nM | Ki [13, 20]: 10.2 nM | Ki [14, 21]: 35.3 nM

COc1cc2c(cc1-c1c(C)noc1C)[nH]c1nc(C)nc(-c3ccnc4ccc(Cl)cc34)c12 [Cpd. No. 90]
IC50 ([3]; Homo sapiens, VCaP, 96 h): 20 nM

COc1cc2c(cc1-c1c(C)noc1C)[nH]c1ccnc(-c3cn[nH]c3)c12
IC50 [9]: 1070 ± 195 nM | Ki [10, 18]: 48.7 ± 3.3 nM | IC50 [4]: 1040 ± 158 nM | IC50 [1]: 286 ± 125 nM | Ki [1]: 42.3 ± 32 nM | IC50 [2]: 608 ± 244 nM | Ki [2]: 114 ± 87 nM | Ki [5, 16]: 89.7 ± 6.4 nM | Ki [11, 19]: 201 ± 5 nM | IC50 [12]: > 2000 nM | Ki [6, 17]: 138 ± 8 nM | Ki [13, 20]: 151 ± 20 nM | Ki [14, 21]: 247 ± 29 nM | IC50 [15]: 217 ± 61 nM

COc1cc2c(cc1-c1c(C)noc1C)[nH]c1nc(C)nc(-c3cc(NCCN(C)C)nc4ccccc34)c12 [Cpd. No. 101]
IC50 ([3]; Homo sapiens, VCaP, 96 h): 25 nM

COc1cc2c(cc1-c1c(C)noc1C)[nH]c1ccnc(-c3c(C4CC4)n[nH]c3C)c12 [Cpd. No. 24, 4-(1-(3-cyclopropyl-5-methyl-1H-pyrazol-4-yl)-8-methoxy-5H-pyrido[4,3-b]indol-7-yl)-3,5-dimethylisoxazole]
IC50 [9]: 83 ± 41 nM | Ki [10]: 50.9 ± 5.8 nM | IC50 [4]: 280 ± 35 nM | Ki [5]: 92.1 ± 3.3 nM | Ki [11]: 134 ± 42 nM | IC50 [12]: > 2000 nM | Ki [6]: 58.4 ± 1 nM | Ki [13]: 38.2 ± 1 nM | Ki [14]: 116 ± 5 nM | IC50 [15]: 173 ± 89 nM

COc1cc2c(cc1-c1c(C)n[nH]c1C)[nH]c1ccnc(-c3c(C)n[nH]c3C)c12 [Cpd. No. 34, 1,7-bis(3,5-dimethyl-1H-pyrazol-4-yl)-8-methoxy-5H-pyrido[4,3-b]indole]
IC50 [1]: 3200 nM | Ki [1]: 1200 nM | IC50 [2]: 3670 nM | Ki [2]: 775 nM

Cc1sc2c(c1C)C(c1ccc(Cl)cc1)=N[C@@H](CC(=O)OC(C)(C)C)c1nnc(C)n1-2 [JQ1, reference compound]
IC50 [3]: 48 nM

COc1cc2c(cc1-c1c(C)noc1C)[nH]c1ccncc12 [RX-7]
Ki [10, 18]: 241 ± 6 nM | IC50 [1]: 1350 ± 212 nM | Ki [1]: 366 ± 82 nM | IC50 [2]: 2900 nM | Ki [2]: 850 nM | Ki [5, 16]: 498 ± 11 nM | Ki [11, 19]: 824 ± 25 nM | Ki [6, 17]: 650 ± 125 nM | Ki [13, 20]: 730 ± 146 nM | Ki [14, 21]: 1640 ± 71 nM

COc1cc2c(cc1-c1c(C)noc1C)[nH]c1ccnc(-c3cccnc3)c12
IC50 [1]: 349 nM | Ki [1]: 57.4 nM | IC50 [2]: 873 nM | Ki [2]: 232 nM
